Test results published in patent publication US20070270418A1, “Inhibitors of P38 and Methods of Using the Same” (priority 2003, published 2007).
Read-outs that look alike come from different tables or passages of the source.

What was measured:
p38α = biological target: T1, p38α (Homo sapiens, UniProt Q16539); experiment: p38 MAP Kinase assay, ATF2 phosphorylation (ELISA); type: biochemical; conditions: 40 μM ATP
T1 construct: p38 MAP Kinases are recombinant human full-length proteins with an amino-terminal GST fusion; GST (N); purchased Upstate (Charlottesville, Va.); host or cells: E. coli
Excerpt: Compounds of the invention are screened for the ability to inhibit ATF2 phosphorylation by p38 MAP Kinase in vitro. The ability of compounds to inhibit ATF2 phosphorylation in this in vitro assay is correlated with the inhibition of p38 MAP Kinase and TNFα expression in vivo, and is therefore an indicator of potential in vivo therapeutic activity (Raingeaud, J., et al, J. Biol. Chem., 270: 7420-7426, 1995, Brinkman, M. N., et al, J. Bil. Chem. 274: 30882-30886, 1999 and Fuchs, S. Y. et al, J. Biol. Chem. 275: 12560-12564, 2000).
All kinases and the substrate ATF2 are acquired from Upstate (Charlottesville, Va.). p38 MAP Kinases are recombinant human full-length proteins with an amino-terminal GST fusion, expressed in and purified from E. coli. ATF2 is a GST fusion protein containing amino acids 19-96 of human ATF2 expressed in E. coli. All proteins were aliquoted and stored at −80° C.
p38 MAP Kinase assays are performed using an assay buffer containing 25 mM HEPES, pH 7.5, 10 mM MgCl2, 2 mM DTT, 20 mM β-glycerophosphate, 0.1 mM Na3VO4, 40 μM ATP and 1.25 μM of ATF2, together with 6 ng of p38α protein, 12 ng p38β protein, 1.5 ng p38γ, or 0.4 ng JNK2α2. Compounds are serially diluted in DMSO and 2 μL of test compound at 25× final concentration is used. The vehicle control receives DMSO only. Test compounds are pre-incubated with 20 μl of enzyme in kinase buffer (25 mM HEPES, pH 7.5, 10 mM MgCl2, 2 mM DTT, 20 mM 3-glycerophosphate and 0.1 mM Na3VO4) at room temperature for 15 minutes. […] The reactions are incubated for 30 minutes at 37° C. and terminated by the addition of 18 μl of 200 mM EDTA. An ELISA method is used to measure the phosphorylation of ATF2 at Thr 69. High binding 96-well plates (Corning 3369) are coated with 50 μl of kinase reaction for 1 hour at 37° C. The coated plates are washed with 200 μl washing buffer (25 mM Tris HCl, pH 8.3, 192 mM glycine, 0.1% SDS and 0.05% Tween-20) three times. The plates are then washed three times with SuperBlock in TBS (Pierce, 37535). After blocking, plates are incubated with 50 μl of rabbit anti-phospho-ATF2 antibody (Cell Signaling, 9221 L, 1:500) for 30 minutes at 37° C. Plates are washed three times with washing buffer prior to incubation with 50 μl HRP-conjugated goat anti-rabbit antibody (Cell Signaling, 7074, 1:500) for 30 minutes at 37° C. Plates are then washed three times with washing buffer before incubation with 50 μl of Ultra TMB-ELISA (Pierce, 34028) for 8 minutes at room temperature. Finally, 50 μl of phosphoric acid (1 M) is added to stop reactions and plate absorbance is read at 450 nm on a SpectraMax 250 plate reader.

[1] = system: TNFα release from THP-1 cells; experiment: TNFα release from LPS-stimulated THP-1 cells; type: cell-based; conditions: Homo sapiens, THP-1, 18 h
Excerpt: Compounds of the invention are screened for the ability to inhibit TNFα and IL-1β release from THP-1 cells stimulated with lipopolysaccharide (LPS) in vitro. The ability of compounds to inhibit TNFα and IL-1β release in this in vitro assay is correlated with the inhibition of p38 activity and TNFα and IL-1β expression in vivo, and is therefore an indicator of potential in vivo therapeutic activity (Lee J. C. et al, Ann. N.Y. Acad. Sci. 696: 149-170, 1993 and Nature, 372: 739-746, 1994).
THP-1 cells from ATCC (TIB202) are maintained at 37° C., 5% CO2 in RPMI 1640 media (MediaTech, Herndon, Va.) containing 4.5 g/L glucose, supplemented with 10% fetal bovine serum, 1% penicillin/streptomycin and 50 μM β-mercaptoethanol.
Test compounds are initially dissolved in RPMI media with 1% DMSO (v/v). Compounds are then serially diluted in RPMI media for all subsequent dilutions. The assay is performed under sterile conditions. THP-1 cells at a culture density of 6-8×10^5 cells/ml are collected and resuspended in the RPMI media at 10^6 cells/ml. 100 μl of resuspended cells are added to each well, which contain 100 μl of a test compound. Test compounds are prepared at twice the final concentration. Final DMSO concentration is no more than 0.5% (v/v). Cells are preincubated with compound for 30 minutes at 37° C., 5% CO2 prior to stimulation with lipopolysaccharide (LPS) (Sigma L-2880, 4 mg/ml stock in PBS). The final LPS concentration in each well is 10 or 30 μg/ml for TNFα and IL-1β release, respectively. Unstimulated control cell suspensions receive PBS vehicle only. Cell mixtures are incubated for 18 or 48 hours for TNFα and IL-1β release, respectively. 150 μl of supernatants are taken and transferred to a fresh plate and stored at −20° C. until further analysis.

[2] = read-out: TNFα (THP-1) IC50 (nM)
[3] = LPS 10 μg/ml, 18 hours, read-out: TNFα (THP-1) IC50

T1 sequence (Q16539 whole entry, the tested form may be a part): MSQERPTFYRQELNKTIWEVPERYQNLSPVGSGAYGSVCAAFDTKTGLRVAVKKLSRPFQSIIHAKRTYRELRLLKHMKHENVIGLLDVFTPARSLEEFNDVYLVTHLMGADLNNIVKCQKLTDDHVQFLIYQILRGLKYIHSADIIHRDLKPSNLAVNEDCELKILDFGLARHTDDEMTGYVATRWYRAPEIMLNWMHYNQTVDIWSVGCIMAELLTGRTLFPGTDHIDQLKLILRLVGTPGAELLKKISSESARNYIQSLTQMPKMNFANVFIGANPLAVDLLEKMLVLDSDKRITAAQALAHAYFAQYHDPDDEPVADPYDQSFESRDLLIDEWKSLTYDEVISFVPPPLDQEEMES

Structure (SMILES) | IC50 (p38α) [nM] | IC50 [1, 2] [nM] | IC50 [1, 3] [nM]
Clc1ccccc1-c1nc2occn2c1-c1ccnc(N[C@H]2CN3CCC2CC3)n1 [CCCIII] | 12.5 | 9 | –
Cc1ccccc1-c1nc2occn2c1-c1ccnc(N[C@H]2CN3CCC2CC3)n1 [CCCII] | 13.8 | 5.5 | –
Fc1ccc(-c2nc3occn3c2-c2ccnc(N[C@H]3CN4CCC3CC4)n2)c(F)c1 [CCCIV] | 3.8 | 1.7 | –
CC(=O)N1CCC(Nc2nccc(-c3c(-c4ccc(F)cc4Cl)nc4occn34)n2)CC1 [CCCIX] | 1.3 | – | 6.5
CC(=O)N1CCC(Nc2nccc(-c3c(-c4ccccc4Cl)nc4occn34)n2)CC1 [CCCI] | 2.3 | – | 38.5
Cc1ccccc1-c1nc2occn2c1-c1ccnc(NC2CCNCC2)n1 [CCCVIII] | 10 | – | 24
CN(C)CC(C)(C)CNc1nccc(-c2c(-c3cccc(C(F)(F)F)c3)nc3occn23)n1 [CCCVII] | 43.3 | – | 136
CC(=O)N1CCC(Nc2nccc(-c3c(-c4cccc(C(F)(F)F)c4)nc4occn34)n2)CC1 [CCCVI] | 4.9 | – | 82.6
CC(=O)N1CCC(Nc2nccc(-c3c(-c4ccccc4C)nc4occn34)n2)CC1 [CCCV] | 4.8 | – | 41
FC(F)(F)c1cccc(-c2nc3occn3c2-c2ccnc(NC3CCNCC3)n2)c1 [CCCXIII] | 21.2 | – | 111
CN1[C@@H]2CC[C@H]1C[C@@H](Nc1nccc(-c3c(-c4ccc(F)cc4F)nc4occn34)n1)C2 [CCCXII] | 2.6 | 1.2 | –
Clc1ccccc1-c1nc2occn2c1-c1ccnc(NC2CCNCC2)n1 [CCCXIV] | 14.5 | – | 24.6
CS(=O)(=O)N1CCC(Nc2nccc(-c3c(-c4ccc(F)cc4Cl)nc4occn34)n2)CC1 [CCCXIX] | 0.3 | – | 17.7
CC(C)(C)OC(=O)N1CCC(Nc2nccc(-c3c(-c4cccc(C(F)(F)F)c4)nc4occn34)n2)CC1 [CCCXI] | 18 | – | 611
CS(=O)(=O)N1CCC(Nc2nccc(-c3c(-c4ccccc4Cl)nc4occn34)n2)CC1 [CCCXVIII] | 1 | – | 18.2
CC(=O)N1CCC(Nc2nccc(-c3c(-c4ccc(F)cc4F)nc4occn34)n2)CC1 [CCCXVII] | 3 | – | 13.7
CS(=O)(=O)N1CCC(Nc2nccc(-c3c(-c4cccc(C(F)(F)F)c4)nc4occn34)n2)CC1 [CCCXVI] | 0.9 | – | 33.7
Cc1ccccc1-c1nc2occn2c1-c1ccnc(NC2C[C@H]3CC[C@@H](C2)N3C)n1 (stereo partly shown) [CCCXX] | 13.9 | 23.7 | –
CN1[C@@H]2CC[C@H]1C[C@@H](Nc1nccc(-c3c(-c4cccc(C(F)(F)F)c4)nc4occn34)n1)C2 [CCCX] | 9.3 | – | 47.9
CC(C)[C@@H](CO)Nc1nccc(-c2c(-c3cccc(F)c3)nc3sccn23)n1 [CCIX] | 26 | – | 55.9
CC(C)[C@@H](CO)Nc1nccc(-c2c(-c3ccc(Br)cc3)nc3sccn23)n1 [CCI] | 75.7 | – | 101
CC(=O)N1CCC(Nc2nccc(-c3c(-c4ccc(F)cc4)nc4sccn34)n2)CC1 [CCLIII] | 1.65 | – | 6.27
O=C(c1ccc(F)cc1)N1CCC(Nc2nccc(-c3c(-c4ccc(F)cc4)nc4sccn34)n2)CC1 [CCLII] | 2.02 | – | 21.9
Fc1ccc(CN2CCC(Nc3nccc(-c4c(-c5ccc(F)cc5)nc5sccn45)n3)CC2)cc1 [CCLIV] | 30.2 | – | 345

Structure (SMILES) | IC50 (p38α) [nM] | IC50 [1, 2] [nM] | IC50 [1, 3] [nM]
C[C@@H](Nc1nccc(-c2c(-c3ccc(F)cc3)nc3sccn23)n1)C(N)=O [CCLIX] | 22.2 | – | 47.7
OC(CNc1nccc(-c2c(-c3ccc(F)cc3)nc3sccn23)n1)COc1ccccc1 (stereo not shown) [CCLI] | 14.3 | – | 84.9
Fc1ccc(-c2nc3sccn3c2-c2ccnc(NCCN3CCN(Cc4ccccc4)CC3)n2)cc1 [CCLVIII] | 57.7 | – | 643
CC(CN(C)C)Nc1nccc(-c2c(-c3ccc(F)cc3)nc3sccn23)n1 (stereo not shown) [CCLVII] | 25.4 | – | 38.6
O=C(Nc1ccc(F)cc1)N1CCC(Nc2nccc(-c3c(-c4ccc(F)cc4)nc4sccn34)n2)CC1 [CCLVI] | 1.07 | – | 9.68
CCNC(=O)N1CCC(Nc2nccc(-c3c(-c4ccc(F)cc4)nc4sccn34)n2)CC1 [CCLV] | 2.12 | – | 10.8
CC(C)(CNC(=O)OC(C)(C)C)CNc1nccc(-c2c(-c3ccc(F)cc3)nc3sccn23)n1 [CCLXIII] | 5.85 | – | 23.3
CC(C)(C)OC(=O)N1CCCC(Nc2nccc(-c3c(-c4ccc(F)cc4)nc4sccn34)n2)C1 (stereo not shown) [CCLXII] | 29.8 | – | 196
COc1cccc(-c2nc3sccn3c2-c2nc(SC)ncc2-c2ccccc2)c1 [CCXXXIV] | – | – | > 10000
c1ccc(CNc2nccc(-c3c(-c4ccccc4)nc4sccn34)n2)cc1 [CXXXI] | 28.5 | – | –
c1ccc(-c2nc3sccn3c2-c2ccnc(NCc3cccs3)n2)cc1 [CXXXVIII] | 10.2 | – | –
c1ccc(-c2nc3sccn3c2-c2ccnc(NCC3CCCCC3)n2)cc1 [CXXXVII] | 65.7 | – | –
Fc1ccc(CNc2nccc(-c3c(-c4ccccc4)nc4sccn34)n2)cc1 [CXXXVI] | 150 | – | –
c1ccc(-c2nc3sccn3c2-c2ccnc(N3CCCCC3)n2)cc1 [CXXXV] | 396 | – | –
CSc1nccc(-c2c(-c3ccccc3)nc3sccn23)n1 [CXXX] | 228 | – | –
CN1CCCC1CCNc1nccc(-c2c(-c3ccc(F)cc3)nc3occn23)n1 (stereo not shown) [LXI] | 650 | – | –
Cc1csc(Nc2nccc(-c3c(-c4ccc(F)cc4)nc4occn34)n2)n1 [LXXII] | 664 | – | –
CSc1nc(Nc2nccc(-c3c(-c4ccc(F)cc4)nc4occn34)n2)n[nH]1 [LXXVII] | 529 | – | –
CNCCNc1nccc(-c2c(-c3ccc(F)cc3)nc3occn23)n1 [XCII] | 3330 | – | –
CN(CCO)c1nccc(-c2c(-c3ccc(F)cc3)nc3occn23)n1 [XCVI] | 969 | – | –
NC1CCN(c2nccc(-c3c(-c4ccc(F)cc4)nc4occn34)n2)CC1 [XC] | 866 | – | –
CS(=O)(=O)c1nccc(-c2c(-c3ccc(F)cc3)nc3occn23)n1 [XI, 6-(4-fluorophenyl)-5-[2-(methylsulfonyl)pyrimidin-4-yl]imidazo[2,1-b][1,3]oxazole] | 4430 | – | –
OCC(CO)Nc1nccc(-c2c(-c3ccc(F)cc3)nc3occn23)n1 [XIII] | 13 | – | –
